The values that follow are results of earlier work, collected in US20200399681A1, “ASSAY FOR DETECTION OF ANDROGEN RECEPTOR VARIANTS” (Cornell University, priority 2018, published 2020).

For series [1], the system named is prostate cancer patients.
In series [2] the test system is prostate cancer patients. This is another data set of the same source.

Like-named read-outs stand apart in the source and are kept apart here.

Take `CNC(=O)c1ccc(N2C(=S)N(c3ccc(C#N)c(C(F)(F)F)c3)C(=O)C2(C)C)cc1F` [enza, enzalutamide]: the “PSA progression-free survival, median” value in series [1] (AR-V7- (negative) pts) was 6.0 months; P < 0.001) &. The entries for the “overall survival (OS), median” value in series [1] (AR-V7- (negative) pts) and in series [1] (AR-V7-positive pts) were “not reached” and 5.5 months, respectively. Also, the “PSA response rates, AR-V7-positive pts compared with AR-V7- pts” value in series [1] (AR-V7-positive vs AR-V7- pts) was “positive pts had lower PSA”. In series [2] (high AR-V7 expression, adjusted for covariates), the “adjusted HR for AR-V7 (TTF, multivariable analysis)” value was “cohort (adjusted HR = 2.02”. Further, the results for the “median OS” value in series [2] (pts with high AR-V7 expression (the shorter OS)) and in series [2] (pts without high AR-V7 expression) were 13.8 months and 29.1 months, respectively. Moreover, the “time to treatment failure (TTF), median” value in series [2] (pts with high AR-V7 expression (top tertile, >19 copies/mg RNA)) was “P = 0.046) and median 3.6 months”.
